The test system of assay [1] is ZIKV replication complexes. The assay can be described thus: In vitro replication assay with crude replication complexes and clickable uridine analog (5EU). It is filed as biochemical. The conditions noted are these: crude replication complexes from ZIKV-infected cells.
For assay [2], the system named is ZIKV. As to the kind of experiment: Quantification of (+)vRNA and viral particles by qPCR and plaque assays, ZIKV-infected cells. Type of assay: cell-based. The conditions noted are these: added at 24 h, analyzed at 36 hpi. A general note: In qPCR the cycle at which signal appears reflects the starting amount.
In assay [3] the test system is DENV. Type of assay: cell-based, DENV-2 strain 16681.
Assay [4] relates to ZIKV. Type of assay: cell-based, ZIKV PRVABC59.
The test system of assay [5] is PV. Type of assay: cell-based, PV-1 Mahoney.
Assay [6] relates to ZIKV RNA translation initiation. The assay can be described thus: Sucrose gradient polysome fractionation with qPCR of GAPDH mRNA and ZIKV plus-strand RNA. The conditions noted are these: then 30 nM RocA for 30 min. Type of assay: cell-based.
The test system of assay [7] is ZIKV NS5 and E. It is filed as cell-based. The settings on record: added at 24 h, analyzed at 36 hpi; compared to CHX or Puro.
The subject of assay [8] is ebola, chikungunya, influenza and ZIKV. The settings on record: cited from earlier work.

“Also recorded” adds a separate entry of the source. Where two headings read alike, the source gives them in different places.

`C[C@@]1(O)[C@H](O)[C@@H](CO)O[C@H]1n1cnc2c(N)ncnc21` [2′CMA]: in assay [1], the “ZIKV replication in vitro (5EU labelling of newly synthesized RNA)” value was “reduced”.

For the molecule `C[C@@H]1C[C@@H]([C@H](O)CC2CC(=O)NC(=O)C2)C(=O)[C@@H](C)C1` [CHX, cycloheximide], the “accumulation of viral RNA or particles” value in assay [2] was “reduced viral replication”.

In the case of `CCOC(=O)c1ccc(-c2ncc(C(=O)OCC)s2)nc1` [PythiDC, Diethyl-pythiDC], the “virus production (DENV)” value in assay [3] is “inhibit virus replication”. Further, the “virus production (ZIKV)” value in assay [4] is given as “inhibit virus replication”.

Regarding `COc1ccc([C@@]23Oc4cc(OC)cc(OC)c4[C@]2(O)[C@H](O)[C@H](C(=O)N(C)C)[C@H]3c2ccccc2)cc1` [RocA, Rocaglamide A], the “virus production (PV)” value in assay [5] is listed as “only minor effects; also recorded: not PV”. For the same molecule, in assay [2], the “accumulation of viral RNA or particles” value was “reduced viral replication”. The “ZIKV replication in vitro (5EU labelling of newly synthesized RNA)” value in assay [1] was “reduced”. Besides, in assay [6] (ZIKV-infected cells 24 h), the “distribution of ZIKV plus-strand RNA in gradient fractions” value is listed as “shift of ZIKV RNA to lighter fractions”. Besides, the “distribution of GAPDH mRNA in gradient fractions” value in assay [6] (mock or ZIKV-infected cells 24 h) is reported as “did not affect”. Further, in assay [3], the “virus production (DENV)” value is on record as “strongly reduced; also recorded: blocks viral replication; also recorded: drastic dose-dependent decrease”. Also, the “accumulation of NS5 or E” value in assay [7] is listed as “mild inhibitory effect”. The “virus production (ZIKV)” value in assay [4] is given as “strongly reduced; also recorded: blocks viral replication; also recorded: drastic dose-dependent decrease”.

Consider `CC(/C=C/C(C)=C/[C@@H]1Cc2nc(cs2)[C@@H](C)C[C@@H](N)CC(=O)O[C@@H](C)C/C(C)=C/C=C\C(=O)O1)=C\CN(C)C` [pateamine A], for which the antiviral activity entry in assay [8] is “antiviral activity”.

For `COC(=O)[C@H]1[C@@H](O)[C@@]2(O)c3c(OC)cc(O[C@@H]4O[C@@H]([C@H](O)CO)CO[C@H]4OC)cc3O[C@@]2(c2ccc(OC)cc2)[C@@H]1c1ccccc1` [silvestrol], the antiviral activity entry in assay [8] (against ebola, chikungunya, influenza and ZIKV, literature references) was “antiviral activity”.

Source of the values: US20230201245A1, “COMPOSITIONS AND METHODS FOR TREATING VIRUS INFECTION” (CZ BIOHUB SF, LLC, priority 2020, published 2023).
